Converted amounts (≈) assume the structure as drawn.

The first experiment has as its system Pasteurella multocida PM 6267 (P 2225 (L386), reference strain, mouse infection strain). The experiment is described as follows: MIC, broth-microdilution (CLSI VET01-A4), strain PM 6267. The class given is cell-based. The note with it: Pasteurella multocida strain PM 6267, broth-microdilution; unit assumed. The essentials:
(§1)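 Test articles are arrayed as a twofold dilution range in microdilution trays. Wells are scored by naked eye, and the MIC is taken where turbidity first disappears.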
(In general: Dilution methods test growth across graded concentrations, often in twofold steps.)
Take `CSC(C)(C)[C@H](NC(=O)c1ccc(C#Cc2ccc(CNCc3nccs3)nc2)cc1)C(=O)NO` [Compound 368]: the MIC PM 6267 is 0.4 µg/mL (≈ 0.785 µM).

As for `CC(C)([C@H](NC(=O)c1ccc(C#Cc2ccc(CNCc3ccccn3)nc2)cc1)C(=O)NO)S(C)(=O)=O` [Compound 353], the MIC PM 6267 is 3.1 µg/mL (≈ 5.79 µM).

On to `CC(C)(O)[C@H](NC(=O)c1ccc(C#Cc2ccc(CNCc3ccncc3)nc2)cc1)C(=O)NO` [Compound 329], for which the MIC PM 6267 amounted to 0.8 µg/mL (≈ 1.69 µM).

Turning to `COCCNCc1ccc(C#Cc2ccc(C(=O)N[C@H](C(=O)NO)C(C)(C)O)cc2)cn1` [Compound 325], the MIC PM 6267 was determined as 1.6 µg/mL (≈ 3.63 µM).

The next experiment relates to Mannheimia haemolytica MH 6357 (M7/2, reference strain, cattle infection strain). The experiment is described as follows: MIC, broth-microdilution (CLSI VET01-A4), strain MH 6357. The class given is cell-based. The note with it: Mannheimia haemolytica strain MH 6357, broth-microdilution; unit assumed. The essentials:
as §1
In turn, `CSC(C)(C)[C@H](NC(=O)c1ccc(C#Cc2ccc(CNCc3nccs3)nc2)cc1)C(=O)NO` [Compound 368] returned an MIC MH 6357 of 0.8 µg/mL (≈ 1.57 µM).

`CC(C)([C@H](NC(=O)c1ccc(C#Cc2ccc(CNCc3ccccn3)nc2)cc1)C(=O)NO)S(C)(=O)=O` [Compound 353]: the MIC MH 6357 was 3.1 µg/mL (≈ 5.79 µM).

With `CC(C)(O)[C@H](NC(=O)c1ccc(C#Cc2ccc(CNCc3ccncc3)nc2)cc1)C(=O)NO` [Compound 329], the MIC MH 6357 is 0.8 µg/mL (≈ 1.69 µM).

Regarding `COCCNCc1ccc(C#Cc2ccc(C(=O)N[C@H](C(=O)NO)C(C)(C)O)cc2)cn1` [Compound 325], the MIC MH 6357 is 0.8 µg/mL (≈ 1.82 µM).

Another experiment deals with Mannheimia haemolytica MH 6374 (ATCC 33396, reference strain). The experiment is described as follows: MIC, broth-microdilution (CLSI VET01-A4), strain MH 6374. The class given is cell-based. The note with it: Mannheimia haemolytica strain MH 6374, broth-microdilution; unit assumed. Summed up: as §1
Take `CSC(C)(C)[C@H](NC(=O)c1ccc(C#Cc2ccc(CNCc3nccs3)nc2)cc1)C(=O)NO` [Compound 368]: the MIC MH 6374 amounted to 0.8 µg/mL (≈ 1.57 µM).

With `CC(C)([C@H](NC(=O)c1ccc(C#Cc2ccc(CNCc3ccccn3)nc2)cc1)C(=O)NO)S(C)(=O)=O` [Compound 353], the MIC MH 6374 came out at 6.3 µg/mL (≈ 11.8 µM).

For the compound `CC(C)(O)[C@H](NC(=O)c1ccc(C#Cc2ccc(CNCc3ccncc3)nc2)cc1)C(=O)NO` [Compound 329], the MIC MH 6374 worked out at 1.6 µg/mL (≈ 3.38 µM).

Turning to `COCCNCc1ccc(C#Cc2ccc(C(=O)N[C@H](C(=O)NO)C(C)(C)O)cc2)cn1` [Compound 325], the MIC MH 6374 worked out at 1.6 µg/mL (≈ 3.63 µM).

The subject of a further experiment is Pasteurella multocida PM 10775 (080130003051, BRD field isolate). The experiment is described as follows: MIC, broth-microdilution (CLSI VET01-A4), strain PM 10775. It is filed as cell-based. The note with it: Pasteurella multocida strain PM 10775, broth-microdilution; unit assumed. The essentials:
as §1
`CSC(C)(C)[C@H](NC(=O)c1ccc(C#Cc2ccc(CNCc3nccs3)nc2)cc1)C(=O)NO` [Compound 368] returned an MIC PM 10775 not above 0.1 µg/mL.

Compound `CC(C)([C@H](NC(=O)c1ccc(C#Cc2ccc(CNCc3ccccn3)nc2)cc1)C(=O)NO)S(C)(=O)=O` [Compound 353] gave an MIC PM 10775 of 0.4 µg/mL (≈ 0.747 µM).

Turning to `CC(C)(O)[C@H](NC(=O)c1ccc(C#Cc2ccc(CNCc3ccncc3)nc2)cc1)C(=O)NO` [Compound 329], the MIC PM 10775 is not above 0.1 µg/mL.

In turn, `COCCNCc1ccc(C#Cc2ccc(C(=O)N[C@H](C(=O)NO)C(C)(C)O)cc2)cn1` [Compound 325] registered an MIC PM 10775 not above 0.1 µg/mL.

The subject of another experiment is Mannheimia haemolytica MH 13093 (XB0472-6014.1, BRD field isolate). The experiment is described as follows: MIC, broth-microdilution (CLSI VET01-A4), strain MH 13093. The class given is cell-based. The note with it: Mannheimia haemolytica strain MH 13093, broth-microdilution; unit assumed. The essentials:
as §1
Regarding `CSC(C)(C)[C@H](NC(=O)c1ccc(C#Cc2ccc(CNCc3nccs3)nc2)cc1)C(=O)NO` [Compound 368], the MIC MH 13093 is 1.6 µg/mL (≈ 3.14 µM).

On to `CC(C)([C@H](NC(=O)c1ccc(C#Cc2ccc(CNCc3ccccn3)nc2)cc1)C(=O)NO)S(C)(=O)=O` [Compound 353], for which the MIC MH 13093 came to 6.3 µg/mL (≈ 11.8 µM).

On to `CC(C)(O)[C@H](NC(=O)c1ccc(C#Cc2ccc(CNCc3ccncc3)nc2)cc1)C(=O)NO` [Compound 329], for which the MIC MH 13093 is 1.6 µg/mL (≈ 3.38 µM).

With `COCCNCc1ccc(C#Cc2ccc(C(=O)N[C@H](C(=O)NO)C(C)(C)O)cc2)cn1` [Compound 325], the MIC MH 13093 amounted to 3.1 µg/mL (≈ 7.04 µM).

The test system of a further experiment is Mannheimia haemolytica MH 13065 (XB0446-6003.9, BRD field isolate). The experiment is described as follows: MIC, broth-microdilution (CLSI VET01-A4), strain MH 13065. The class given is cell-based. The note with it: Mannheimia haemolytica strain MH 13065, broth-microdilution; unit assumed. Summed up: as §1
`CSC(C)(C)[C@H](NC(=O)c1ccc(C#Cc2ccc(CNCc3nccs3)nc2)cc1)C(=O)NO` [Compound 368] gave an MIC MH 13065 of 0.8 µg/mL (≈ 1.57 µM).

As to `CC(C)([C@H](NC(=O)c1ccc(C#Cc2ccc(CNCc3ccccn3)nc2)cc1)C(=O)NO)S(C)(=O)=O` [Compound 353], the MIC MH 13065 came out at 6.3 µg/mL (≈ 11.8 µM).

The compound `CC(C)(O)[C@H](NC(=O)c1ccc(C#Cc2ccc(CNCc3ccncc3)nc2)cc1)C(=O)NO` [Compound 329] showed an MIC MH 13065 of 0.8 µg/mL (≈ 1.69 µM).

Regarding `COCCNCc1ccc(C#Cc2ccc(C(=O)N[C@H](C(=O)NO)C(C)(C)O)cc2)cn1` [Compound 325], the MIC MH 13065 stood at 1.6 µg/mL (≈ 3.63 µM).

A further experiment deals with Mannheimia haemolytica MH 10720 (154, BRD field isolate). The experiment is described as follows: MIC, broth-microdilution (CLSI VET01-A4), strain MH 10720. It is filed as cell-based. The note with it: Mannheimia haemolytica strain MH 10720, broth-microdilution; unit assumed. The essentials:
as §1
Regarding `CSC(C)(C)[C@H](NC(=O)c1ccc(C#Cc2ccc(CNCc3nccs3)nc2)cc1)C(=O)NO` [Compound 368], the MIC MH 10720 worked out at 0.4 µg/mL (≈ 0.785 µM).

`CC(C)([C@H](NC(=O)c1ccc(C#Cc2ccc(CNCc3ccccn3)nc2)cc1)C(=O)NO)S(C)(=O)=O` [Compound 353] displayed an MIC MH 10720 of 0.8 µg/mL (≈ 1.49 µM).

For `CC(C)(O)[C@H](NC(=O)c1ccc(C#Cc2ccc(CNCc3ccncc3)nc2)cc1)C(=O)NO` [Compound 329], the MIC MH 10720 is not above 0.1 µg/mL.

Regarding `COCCNCc1ccc(C#Cc2ccc(C(=O)N[C@H](C(=O)NO)C(C)(C)O)cc2)cn1` [Compound 325], the MIC MH 10720 amounted to 0.4 µg/mL (≈ 0.908 µM).

A further experiment concerns Pasteurella multocida PM 12080 (IV102277-0093, BRD field isolate). The experiment is described as follows: MIC, broth-microdilution (CLSI VET01-A4), strain PM 12080. The class given is cell-based. The note with it: Pasteurella multocida strain PM 12080, broth-microdilution; unit assumed. The essentials:
as §1
`CSC(C)(C)[C@H](NC(=O)c1ccc(C#Cc2ccc(CNCc3nccs3)nc2)cc1)C(=O)NO` [Compound 368] came in with an MIC PM 12080 of 0.2 µg/mL (≈ 0.392 µM).

`CC(C)([C@H](NC(=O)c1ccc(C#Cc2ccc(CNCc3ccccn3)nc2)cc1)C(=O)NO)S(C)(=O)=O` [Compound 353]: the MIC PM 12080 was determined as 0.8 µg/mL (≈ 1.49 µM).

As for `CC(C)(O)[C@H](NC(=O)c1ccc(C#Cc2ccc(CNCc3ccncc3)nc2)cc1)C(=O)NO` [Compound 329], the MIC PM 12080 was determined as 0.4 µg/mL (≈ 0.845 µM).

As for `COCCNCc1ccc(C#Cc2ccc(C(=O)N[C@H](C(=O)NO)C(C)(C)O)cc2)cn1` [Compound 325], the MIC PM 12080 came out at 0.8 µg/mL (≈ 1.82 µM).

In the next experiment the test system is Mannheimia haemolytica MH 12587 (1071, BRD field isolate, macrolide-resistance: erm+, E+). The experiment is described as follows: MIC, broth-microdilution (CLSI VET01-A4), strain MH 12587. It is filed as cell-based. The conditions noted are these: Mannheimia haemolytica strain MH 12587, broth-microdilution; unit assumed. The essentials:
as §1
`CSC(C)(C)[C@H](NC(=O)c1ccc(C#Cc2ccc(CNCc3nccs3)nc2)cc1)C(=O)NO` [Compound 368] registered an MIC MH 12587 of 1.6 µg/mL (≈ 3.14 µM).

Compound `CC(C)([C@H](NC(=O)c1ccc(C#Cc2ccc(CNCc3ccccn3)nc2)cc1)C(=O)NO)S(C)(=O)=O` [Compound 353] had an MIC MH 12587 of 12.5 µg/mL (≈ 23.3 µM).

`CC(C)(O)[C@H](NC(=O)c1ccc(C#Cc2ccc(CNCc3ccncc3)nc2)cc1)C(=O)NO` [Compound 329] yielded an MIC MH 12587 of 3.1 µg/mL (≈ 6.55 µM).

Compound `COCCNCc1ccc(C#Cc2ccc(C(=O)N[C@H](C(=O)NO)C(C)(C)O)cc2)cn1` [Compound 325] returned an MIC MH 12587 of 3.1 µg/mL (≈ 7.04 µM).

Another experiment relates to Pasteurella multocida PM 6391 (ATCC 43137, reference strain). The experiment is described as follows: MIC, broth-microdilution (CLSI VET01-A4), strain PM 6391. The class given is cell-based. The conditions noted are these: Pasteurella multocida strain PM 6391, broth-microdilution; unit assumed. The procedure: For example, representative compounds were tested against ***, Mannheimia haemolytica and Pasteurella multocida, using the conventional broth-dilution assay.
The Minimum inhibitory concentrations (MIC) of compounds according to the invention for a number of veterinary bacterial pathogens were determined by the broth-microdilution method according to CLSI document VET01-A4.
Microdilution trays containing a doubling dilution series of the test compound were used for the tests. The MIC results were interpreted according to the CLSI documents VET01-S3. The lowest concentration of compound at which no visible growth (i.e. no turbidity) detected by the unaided eye was recorded as the MIC.
In turn, `CSC(C)(C)[C@H](NC(=O)c1ccc(C#Cc2ccc(CNCc3nccs3)nc2)cc1)C(=O)NO` [Compound 368] yielded an MIC PM 6391 of 0.4 µg/mL (≈ 0.785 µM).

In turn, `CC(C)([C@H](NC(=O)c1ccc(C#Cc2ccc(CNCc3ccccn3)nc2)cc1)C(=O)NO)S(C)(=O)=O` [Compound 353] registered an MIC PM 6391 of 1.6 µg/mL (≈ 2.99 µM).

In the case of `CC(C)(O)[C@H](NC(=O)c1ccc(C#Cc2ccc(CNCc3ccncc3)nc2)cc1)C(=O)NO` [Compound 329], the MIC PM 6391 stood at 0.4 µg/mL (≈ 0.845 µM).

Compound `COCCNCc1ccc(C#Cc2ccc(C(=O)N[C@H](C(=O)NO)C(C)(C)O)cc2)cn1` [Compound 325] yielded an MIC PM 6391 of 0.8 µg/mL (≈ 1.82 µM).

Values taken from patent US11034650B2, “Compounds useful for treating a Mannheimia haemolytica or Histophilus somni infection” (Intervet Inc., priority 2016, dated 2021).
